From patent publication US10570122B2, “Compounds with anti-tumoral activity” (AB Science, priority 2015, dated 2020)

Columns and labels:
PLCPRF5 = assay: CellTiter-Blue cell-based survival/proliferation assay, PLCPRF5; details: Homo sapiens, PLC-PRF-5; PLC_PRF5 liver tumor cell line, 48 h
Summary of the method: (§1)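 Tenfold compound dilutions (0–10 μM) were added to 1·10^4 cells/well. Plates incubated 48 h at 37 °C. CellTiter-Blue reduction (4 h, 37 °C) was read as fluorescence at 590 nm, background-corrected with a cell-free blank.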

PC3 = assay: CellTiter-Blue cell-based survival/proliferation assay, PC3; details: Homo sapiens, PC-3; PC3 prostate tumor cell line, 48 h
Summary of the method: as §1

U2OS = assay: CellTiter-Blue cell-based survival/proliferation assay, U2OS; details: Homo sapiens; U2OS osteosarcoma cell line, 48 h
Summary of the method: as §1

U118 = assay: CellTiter-Blue cell-based survival/proliferation assay, U118; details: Homo sapiens; U118 glioblastoma cell line, 48 h
Summary of the method: as §1

AGS = assay: CellTiter-Blue cell-based survival/proliferation assay, AGS; details: Homo sapiens; AGS stomach tumor cell line, 48 h
Summary of the method: as §1

CALU6 = assay: CellTiter-Blue cell-based survival/proliferation assay, CALU6; details: Homo sapiens, Calu-6; CALU6 lung tumor cell line, 48 h
Summary of the method: as §1

BT20 = assay: CellTiter-Blue cell-based survival/proliferation assay, BT20; details: Homo sapiens, BT-20; BT20 breast tumor cell line, 48 h
Summary of the method: as §1

A375 = assay: CellTiter-Blue cell-based survival/proliferation assay, A375; details: Homo sapiens, A-375; A375 melanoma cell line, 48 h
Summary of the method: as §1

ACHN = assay: CellTiter-Blue cell-based survival/proliferation assay, ACHN; details: Homo sapiens; ACHN kidney tumor cell line, 48 h
Summary of the method: as §1

HEP2 = assay: CellTiter-Blue cell-based survival/proliferation assay, HEP2; details: Homo sapiens, HEp-2; HEP2 head & neck tumor cell line, 48 h
Summary of the method: as §1

BXPC3 = assay: CellTiter-Blue cell-based survival/proliferation assay, BXPC3; details: Homo sapiens, BXPC-3; BXPC3 pancreas tumor cell line, 48 h
Summary of the method: as §1

HUT78 = assay: CellTiter-Blue cell-based survival/proliferation assay, HUT78; details: Homo sapiens, Lymphoma cell line HUT78, 48 h, read-out: Anti-tumoral activity (measured IC50) HUT78
Summary of the method: as §1

MDAMB231 = assay: CellTiter-Blue cell-based survival/proliferation assay, MDAMB231; details: Homo sapiens, MDA-MB-231; MDAMB231 breast tumor cell line, 48 h
Summary of the method: as §1

OPM2 = assay: CellTiter-Blue cell-based survival/proliferation assay, OPM2; details: Homo sapiens, OPM-2, Myeloma cell line OPM2, 48 h, read-out: Anti-tumoral activity (measured IC50) OPM2
Summary of the method: as §1

SW579 = assay: CellTiter-Blue cell-based survival/proliferation assay, SW579; details: Homo sapiens; SW579 head & neck tumor cell line, 48 h
Summary of the method: as §1

U87MG = assay: CellTiter-Blue cell-based survival/proliferation assay, U87MG; details: Homo sapiens, U-87 MG; U87_MG glioblastoma cell line, 48 h
Summary of the method: as §1

HGC27 = assay: CellTiter-Blue cell-based survival/proliferation assay, HGC27; details: Homo sapiens, HGC-27; HGC27 stomach tumor cell line, 48 h
Summary of the method: as §1

HEPG2 = assay: CellTiter-Blue cell-based survival/proliferation assay, HEPG2; details: Homo sapiens; HEPG2 liver tumor cell line, 48 h
Summary of the method: as §1

KARPAS299 = assay: CellTiter-Blue cell-based survival/proliferation assay, KARPAS299; details: Homo sapiens, KARPAS-299, Lymphoma cell line KARPAS299, 48 h, read-out: Anti-tumoral activity (measured IC50) KARPAS299
Summary of the method: as §1

MESSA = assay: CellTiter-Blue cell-based survival/proliferation assay, MESSA; details: Homo sapiens, MES-SA; MESSA ovary tumor cell line, 48 h
Summary of the method: as §1

TOV112D = assay: CellTiter-Blue cell-based survival/proliferation assay, TOV112D; details: Homo sapiens; TOV112D ovary tumor cell line, 48 h
Summary of the method: as §1

CLS354 = assay: CellTiter-Blue cell-based survival/proliferation assay, CLS354; details: Homo sapiens, CLS-354; CLS354_4 head & neck tumor cell line, 48 h
Summary of the method: as §1

REC1 = assay: CellTiter-Blue cell-based survival/proliferation assay, REC1; details: Homo sapiens, Lymphoma cell line REC1, 48 h, read-out: Anti-tumoral activity (measured IC50) REC1
Summary of the method: as §1

HL60 = assay: CellTiter-Blue cell-based survival/proliferation assay, HL60; details: Homo sapiens, HL-60, Leukemia cell line HL60, 48 h, read-out: Anti-tumoral activity (measured IC50) HL60
Summary of the method: as §1

DLD1 = assay: CellTiter-Blue cell-based survival/proliferation assay, DLD1; details: Homo sapiens, DLD-1; DLD_1 colorectal tumor cell line, 48 h
Summary of the method: as §1

A498 = assay: CellTiter-Blue cell-based survival/proliferation assay, A498; details: Homo sapiens; A498 kidney tumor cell line, 48 h
Summary of the method: as §1

A549 = assay: CellTiter-Blue cell-based survival/proliferation assay, A549; details: Homo sapiens; A549 lung tumor cell line, 48 h
Summary of the method: as §1

H1299 = assay: CellTiter-Blue cell-based survival/proliferation assay, H1299; details: Homo sapiens, NCI-H1299; H1299 lung tumor cell line, 48 h
Summary of the method: as §1

DU145 = assay: CellTiter-Blue cell-based survival/proliferation assay, DU145; details: Homo sapiens, DU-145; DU145 prostate tumor cell line, 48 h
Summary of the method: as §1

HCT116 = assay: CellTiter-Blue cell-based survival/proliferation assay, HCT116; details: Homo sapiens, HCT-116; HCT116 colorectal tumor cell line, 48 h
Summary of the method: as §1

MELWO = assay: CellTiter-Blue cell-based survival/proliferation assay, MELWO; details: Homo sapiens; MEL_WO melanoma cell line, 48 h
Summary of the method: as §1

A4513 = assay: CellTiter-Blue cell-based survival/proliferation assay, A4513; details: Homo sapiens; A4513 Ewing cell line, 48 h
Summary of the method: as §1

PANC1 = assay: CellTiter-Blue cell-based survival/proliferation assay, PANC1; details: Homo sapiens, PANC-1; PANC_1 pancreas tumor cell line, 48 h
Summary of the method: as §1

Measured: IC50

CCOCc1ccc(C)c(Nc2nc(-c3ccc(-n4ccnc4)cc3)cs2)c1 [Example 017, (5-Ethoxymethyl-2-methyl-phenyl)-[4-(4-imidazol-1-yl-phenyl)-thiazol-2-yl]-amine]
> 1000 nM: all assays above
